In patent publication US10966426B2, “Herbicidal compositions comprising phenylpyrimidines” (BASF SE, priority 2016, dated 2021):
“And” between values parts separate entries of the source, which are not always exact repeats. Equal values may be shown once.

Columns and labels:
Assay type in all cases: in vivo
Avena fatua = assay: greenhouse pre-emergence treatment, AVEFA
Procedure, shortened: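 Pre-emergence spray of compounds, alone or as combinations formulated as 10% emulsion concentrate in water, directly after sowing in loamy sand (~3.0% humus); pots hooded until rooting, kept at 10-25° C or 20-35° C per species for 2 to 4 weeks. Damage scored 0-100 (100 = no emergence/complete destruction); Colby expected value E=X+Y−(X·Y/100).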

Echinocloa crus-galli = assay: greenhouse post-emergence treatment, ECHCG
Procedure, shortened: (§1)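 Visual herbicidal effect (0–100) recorded over a 2 to 4 week test period after foliar treatment at plant heights of 3 to 15 cm. Expected combination effects derived by the Colby formula from single-component effects X and Y.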

Setaria viridis = assay: greenhouse post-emergence treatment, SETVI
Procedure, shortened: (§2)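 Plants were grown in pots of loamy sand with approximately 3.0% humus, either sown directly or transplanted as seedlings a few days before treatment, and sprayed with water-based treatments. They were kept at 10-25° C. or 20-35° C. depending on species and rated visually after 2 to 4 weeks on a 0–100 scale (100 = no emergence or complete destruction of above-ground parts).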

Alopecurus myosuroides = assay: greenhouse post-emergence treatment, ALOMY
Procedure, shortened: as §2

Digitaria sanguinalis = assay: greenhouse post-emergence treatment, DIGSA
Procedure, shortened: as §2

Bromus sterilis = assay: greenhouse post-emergence treatment, BROST
Procedure, shortened: as §2

Matricaria chamomilla = assay: greenhouse post-emergence treatment, MATCH
Procedure, shortened: as §1

[1] = 20 DAT, Ex. 26 solo 62.5 gai/ha

## COC(=O)c1nc(C2CC2)ncc1-c1ccc(F)cc1Cl [Ex. 26]
Avena fatua; 20 DAT, AVEFA, Ex. 26 solo 125 gai/ha
  % activity: 65% and 70%
Avena fatua; 20 DAT, Ex. 26 solo 125 gai/ha
  % activity: 65%
Avena fatua; 21 DAT, AVEFA, Ex. 26 solo 250 gai/ha
  % activity: 70%
Avena fatua; AVEFA, 20 DAT, solo Ex. 26 62.5 gai/ha
  % activity: 55%
Avena fatua; AVEFA, 20 DAT, solo Ex. 26 62.5 gai/ha (Table X68)
  % activity: 45%
Avena fatua; AVEFA, 20 DAT, solo Ex. 26 125 gai/ha
  % activity: 75%
Avena fatua; AVEFA, 20 DAT, solo Ex. 26 125 gai/ha (Table X68)
  % activity: 65%
Avena fatua; AVEFA, Ex. 26 solo 62.5 gai/ha, 20 DAT
  % activity: 40%
Avena fatua; AVEFA, Ex. 26 solo 125 gai/ha, 20 DAT
  % activity: 65%
Avena fatua; AVEFA, Ex. 26 solo 250 gai/ha, 20 DAT
  % activity: 75%
Avena fatua; Ex. 26 solo, 31.25 gai/ha, 20 DAT, AVEFA
  % activity: 25% and 20%
Avena fatua; Ex. 26 solo, 62.5 gai/ha, 20 DAT, AVEFA
  % activity: 55%
Echinocloa crus-galli; 20 DAT, ECHCG, Ex. 26 solo 125 gai/ha
  % activity: 65%
Echinocloa crus-galli; 20 DAT, ECHCG, Ex. 26 solo 250 gai/ha
  % activity: 70%
Echinocloa crus-galli; 20 DAT, Ex. 26 solo 250 gai/ha
  % activity: 80% and 60%
Echinocloa crus-galli; ECHCG, Ex. 26 solo 62.5 gai/ha, 20 DAT
  % activity: 60%
Echinocloa crus-galli; ECHCG, Ex. 26 solo 125 gai/ha, 20 DAT
  % activity: 65%
Echinocloa crus-galli; ECHCG, Ex. 26 solo 250 gai/ha, 20 DAT
  % activity: 70% and 65%
Echinocloa crus-galli; Ex. 26 solo 62.5 gai/ha, 21 DAT, ECHCG
  % activity: 50%
Echinocloa crus-galli; Ex. 26 solo 250 gai/ha, 20 DAT, ECHCG
  % activity: 65%
Setaria viridis; [1]
  % activity: 0%
Setaria viridis; 21 DAT, Ex. 26 solo 125 gai/ha
  % activity: 0%
Setaria viridis; 21 DAT, Ex. 26 solo 250 gai/ha
  % activity: 0%
Setaria viridis; Ex. 26 solo 62.5 gai/ha, 20 DAT, SETVI (pyridate table)
  % activity: 0%
Setaria viridis; Ex. 26 solo 62.5 gai/ha, 20 DAT, SETVI (pyroxsulam table)
  % activity: 0%
Setaria viridis; Ex. 26 solo 125 gai/ha, 20 DAT, SETVI (pyridate table)
  % activity: 20%
Setaria viridis; Ex. 26 solo 125 gai/ha, 20 DAT, SETVI (pyroxsulam table)
  % activity: 0%
Setaria viridis; Ex. 26 solo 250 gai/ha, 20 DAT, SETVI (pyridate table)
  % activity: 25%
Setaria viridis; Ex. 26 solo 250 gai/ha, 20 DAT, SETVI (pyroxsulam table)
  % activity: 10%
Setaria viridis; Ex. 26 solo, 125 gai/ha, 21 DAT, SETVI
  % activity: 10%
Setaria viridis; Ex. 26 solo, 250 gai/ha, 21 DAT, SETVI
  % activity: 15%
Setaria viridis; SETVI, 21 DAT, solo Ex. 26 62.5 gai/ha
  % activity: 10%
Setaria viridis; SETVI, 21 DAT, solo Ex. 26 125 gai/ha
  % activity: 10%
Alopecurus myosuroides; 20 DAT, ALOMY, Ex. 26 solo 62.5 gai/ha
  % activity: 65%
Alopecurus myosuroides; 20 DAT, ALOMY, Ex. 26 solo 125 gai/ha
  % activity: 75%
Alopecurus myosuroides; 20 DAT, ALOMY, Ex. 26 solo 250 gai/ha
  % activity: 75%
Alopecurus myosuroides; 21 DAT, Ex. 26 solo 125 gai/ha
  % activity: 65%
Alopecurus myosuroides; 21 DAT, Ex. 26 solo 250 gai/ha
  % activity: 75%
Alopecurus myosuroides; ALOMY, Ex. 26 solo 125 gai/ha, 20 DAT
  % activity: 75% and 70%
Alopecurus myosuroides; ALOMY, Ex. 26 solo 250 gai/ha, 20 DAT
  % activity: 75%
Alopecurus myosuroides; Ex. 26 solo 62.5 gai/ha, 21 DAT, ALOMY
  % activity: 40%
Alopecurus myosuroides; Ex. 26 solo 125 gai/ha, 20 DAT, ALOMY (pinoxaden table)
  % activity: 73%
Alopecurus myosuroides; Ex. 26 solo 125 gai/ha, 20 DAT, ALOMY (pyridate table)
  % activity: 70%
Alopecurus myosuroides; Ex. 26 solo 250 gai/ha, 20 DAT, ALOMY (pyridate table)
  % activity: 75%
Digitaria sanguinalis; 20 DAT, DIGSA, Ex. 26 solo 125 gai/ha
  % activity: 0%
Digitaria sanguinalis; [1]
  % activity: 0%
Digitaria sanguinalis; 20 DAT, Ex. 26 solo 250 gai/ha
  % activity: 20% and 30%
Digitaria sanguinalis; 21 DAT, Ex. 26 solo 125 gai/ha
  % activity: 0%
Digitaria sanguinalis; DIGSA, 21 DAT, solo Ex. 26 62.5 gai/ha
  % activity: 20%
Digitaria sanguinalis; DIGSA, 21 DAT, solo Ex. 26 125 gai/ha
  % activity: 20%
Digitaria sanguinalis; DIGSA, 21 DAT, solo Ex. 26 250 gai/ha
  % activity: 20%
Digitaria sanguinalis; DIGSA, Ex. 26 solo 125 gai/ha, 20 DAT
  % activity: 0%
Digitaria sanguinalis; Ex. 26 solo 62.5 gai/ha, 20 DAT, DIGSA
  % activity: 0%
Bromus sterilis; 20 DAT, BROST, Ex. 26 solo 125 gai/ha
  % activity: 60% and 35%
Bromus sterilis; 20 DAT, BROST, Ex. 26 solo 250 gai/ha
  % activity: 65%
Bromus sterilis; [1]
  % activity: 0%
Bromus sterilis; 20 DAT, Ex. 26 solo 250 gai/ha
  % activity: 35% and 55% and 30%
Bromus sterilis; 21 DAT, Ex. 26 solo 125 gai/ha
  % activity: 5%
Bromus sterilis; 21 DAT, Ex. 26 solo 250 gai/ha
  % activity: 35%
Bromus sterilis; BROST, Ex. 26 solo 125 gai/ha, 20 DAT
  % activity: 60% and 35% and 40%
Bromus sterilis; BROST, Ex. 26 solo 250 gai/ha, 20 DAT
  % activity: 65%
Bromus sterilis; Ex. 26 solo 62.5 gai/ha, 20 DAT, BROST
  % activity: 0%
Bromus sterilis; Ex. 26 solo 125 gai/ha, 21 DAT, BROST
  % activity: 5%
Bromus sterilis; Ex. 26 solo 250 gai/ha, 21 DAT, BROST
  % activity: 35%
Bromus sterilis; Ex. 26 solo, 125 gai/ha, 20 DAT, BROST
  % activity: 5%
Bromus sterilis; Ex. 26 solo, 125 gai/ha, 21 DAT, BROST
  % activity: 15%
Bromus sterilis; Ex. 26 solo, 250 gai/ha, 21 DAT, BROST
  % activity: 25%
Matricaria chamomilla; [1]
  % activity: 0%
Matricaria chamomilla; 20 DAT, Ex. 26 solo 125 gai/ha
  % activity: 0%
Matricaria chamomilla; 20 DAT, Ex. 26 solo 250 gai/ha
  % activity: 0%
Matricaria chamomilla; 20 DAT, MATCH, Ex. 26 solo 62.5 gai/ha
  % activity: 0%
Matricaria chamomilla; 20 DAT, MATCH, Ex. 26 solo 125 gai/ha
  % activity: 0%
Matricaria chamomilla; 20 DAT, MATCH, Ex. 26 solo 250 gai/ha
  % activity: 0%
Matricaria chamomilla; 21 DAT, Ex. 26 solo 250 gai/ha
  % activity: 0%
Matricaria chamomilla; Ex. 26 solo 62.5 gai/ha, 20 DAT, MATCH (pyridate table)
  % activity: 0%
Matricaria chamomilla; Ex. 26 solo 62.5 gai/ha, 20 DAT, MATCH (pyroxsulam table)
  % activity: 0%
Matricaria chamomilla; Ex. 26 solo 125 gai/ha, 20 DAT, MATCH (pyridate table)
  % activity: 0%
Matricaria chamomilla; Ex. 26 solo 125 gai/ha, 20 DAT, MATCH (pyroxsulam table)
  % activity: 0%
Matricaria chamomilla; Ex. 26 solo 250 gai/ha, 20 DAT, MATCH (pyridate table)
  % activity: 0%
Matricaria chamomilla; Ex. 26 solo 250 gai/ha, 20 DAT, MATCH (pyroxsulam table)
  % activity: 30%
Matricaria chamomilla; Ex. 26 solo 250 gai/ha, 21 DAT, MATCH
  % activity: 0%
Matricaria chamomilla; Ex. 26 solo, 125 gai/ha, 20 DAT, MATCH
  % activity: 0%
Matricaria chamomilla; Ex. 26 solo, 250 gai/ha, 20 DAT, MATCH
  % activity: 0%
Matricaria chamomilla; Ex. 26 solo, 250 gai/ha, 21 DAT, MATCH
  % activity: 20%
Matricaria chamomilla; MATCH, 21 DAT, solo Ex. 26 62.5 gai/ha
  % activity: 0%
Matricaria chamomilla; MATCH, Ex. 26 solo 62.5 gai/ha, 20 DAT
  % activity: 0%
